Measurements as given in the supplement of paper PMC10307832.

Experiments:
Test in all cases: relative viability (nuclei count vs DMSO), 5 days (fraction); higher = more cells survive
PAC-1 + Tozasertib = compound: C=CCc1cccc(/C=N/NC(=O)CN2CCN(Cc3ccccc3)CC2)c1O [PAC-1] + Cc1cc(Nc2cc(N3CCN(C)CC3)nc(Sc3ccc(NC(=O)C4CC4)cc3)n2)n[nH]1 [Tozasertib] (partner 0.1 µM)
In short: (§1)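 Nuclei were stained with Hoechst during a one-step fixation (final 0.05% Triton X-100, 1% formaldehyde, 1 ug/ml Hoechst) carried out 5 days after dosing, then counted on 4× images. The cells, lung cancer lines in 1536-well plates, had been dosed by pin tool the day after seeding with one drug alone or a fixed anchor-drug dose plus five library-drug doses (not always all listed) in √10 steps. Relative viability is the nuclei count in treated wells divided by that in vehicle wells, and each value is the median of duplicate plates.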

Ibrutinib + Foretinib = compound: C=CC(=O)N1CCC[C@@H](n2nc(-c3ccc(Oc4ccccc4)cc3)c3c(N)ncnc32)C1 [Ibrutinib] + COc1cc2c(Oc3ccc(NC(=O)C4(C(=O)Nc5ccc(F)cc5)CC4)cc3F)ccnc2cc1OCCCN1CCOCC1 [Foretinib] (partner 0.25 µM)
In short: as §1

BMX-IN-1 + Phenformin = compound: C=CC(=O)Nc1cc(-n2c(=O)ccc3cnc4ccc(-c5ccc(NS(C)(=O)=O)cc5)cc4c32)ccc1C [BMX-IN-1] + N=C(N)NC(=N)NCCc1ccccc1 [Phenformin] (partner 250 µM)
In short: as §1

Ibrutinib + Phenformin = compound: C=CC(=O)N1CCC[C@@H](n2nc(-c3ccc(Oc4ccccc4)cc3)c3c(N)ncnc32)C1 [Ibrutinib] + N=C(N)NC(=N)NCCc1ccccc1 [Phenformin] (partner 250 µM)
In short: as §1

Cell Line	relative viability (PAC-1 + Tozasertib; first compound 0.02 µM)	relative viability (PAC-1 + Tozasertib; first compound 0.06325 µM)	relative viability (PAC-1 + Tozasertib; first compound 0.2 µM)	relative viability (PAC-1 + Tozasertib; first compound 2 µM)	relative viability (Ibrutinib + Foretinib; first compound 0.005 µM)	relative viability (Ibrutinib + Foretinib; first compound 0.01581 µM)	relative viability (Ibrutinib + Foretinib; first compound 0.05 µM)	relative viability (Ibrutinib + Foretinib; first compound 0.1581 µM)	relative viability (Ibrutinib + Foretinib; first compound 0.5 µM)	relative viability (BMX-IN-1 + Phenformin; first compound 0.02 µM)	relative viability (BMX-IN-1 + Phenformin; first compound 0.2 µM)	relative viability (BMX-IN-1 + Phenformin; first compound 0.6325 µM)	relative viability (BMX-IN-1 + Phenformin; first compound 2 µM)	relative viability (Ibrutinib + Phenformin; first compound 0.005 µM)	relative viability (Ibrutinib + Phenformin; first compound 0.01581 µM)	relative viability (Ibrutinib + Phenformin; first compound 0.05 µM)	relative viability (Ibrutinib + Phenformin; first compound 0.1581 µM)	relative viability (Ibrutinib + Phenformin; first compound 0.5 µM)
201T	0.876	1	0.956	0.883	1.02	1	0.965	1.03	1.08	0.519	0.464	0.483	0.458	0.449	0.443	0.442	0.429	0.412
A549	–	–	–	–	0.878	0.852	1.03	0.984	0.877	0.164	1.01	0.17	0.188	0.21	0.135	0.159	0.163	0.152
A-427	0.176	0.209	0.231	0.2	1.01	0.944	1.04	–	1.02	0.192	0.324	0.348	0.37	0.307	0.351	0.316	0.27	0.3
ABC-1	0.144	0.186	0.197	0.195	1.27	0.961	1.28	1.09	0.897	0.227	0.232	0.243	0.229	0.185	0.271	0.214	0.24	0.29
BEN	0.621	0.541	0.511	0.466	–	0.724	0.418	0.444	0.672	0.264	0.259	0.273	0.254	–	0.23	0.282	0.283	0.247
CAL-12T	0.265	0.315	0.327	0.293	1.11	0.958	0.981	1.14	1.19	0.59	0.544	0.579	0.54	0.546	0.447	0.362	0.651	0.35
COR-L23	0.203	0.304	0.192	0.214	1.08	0.886	1.04	0.926	1	0.499	0.553	0.46	0.48	0.491	0.408	0.454	0.472	0.445
COR-L 105	0.318	0.323	0.383	0.374	1	0.933	0.969	1.04	0.602	0.486	0.458	0.49	0.574	0.455	0.348	0.406	0.531	0.242
Calu-6	–	–	–	–	0.961	0.853	0.918	0.844	0.826	–	–	–	–	–	–	–	–	–
ChaGo-K-1	0.214	0.217	0.223	0.218	0.842	0.902	0.937	0.954	0.853	0.499	0.517	0.541	0.5	0.543	0.462	0.433	0.407	0.494
EBC-1	–	–	–	–	0.0898	0.102	0.102	0.0945	0.098	–	–	–	–	–	–	–	–	–
EKVX	0.426	0.393	0.339	0.365	0.835	0.762	0.802	0.617	0.232	0.21	0.245	0.247	0.211	0.224	0.245	0.226	0.227	0.13
EMC-BAC-2	0.297	0.263	0.265	0.274	0.88	0.894	–	0.969	0.797	0.553	0.573	0.56	0.515	0.465	0.509	0.53	0.571	0.507
EPLC-272H	0.257	0.314	0.273	0.278	0.675	0.474	0.409	0.584	0.434	0.263	0.339	0.345	0.281	0.314	0.286	0.283	0.274	0.207
H3255	0.66	0.656	0.606	0.638	0.66	0.986	0.711	0.993	0.53	0.327	0.357	0.782	0.374	0.364	0.344	0.382	0.375	0.233
HARA	0.108	0.115	0.136	0.111	0.917	0.717	0.705	0.933	0.403	0.413	0.619	0.489	0.409	0.445	0.377	0.357	0.406	0.331
HCC-15	0.398	0.458	0.449	0.378	0.978	0.929	1.08	1.08	1.01	0.501	0.591	0.531	0.506	0.571	0.477	0.524	0.408	0.53
HCC-44	0.989	1.04	0.94	0.877	–	–	–	–	–	0.321	0.269	0.251	0.262	0.138	0.182	0.148	0.11	0.232
HCC-78	0.486	0.399	0.496	0.342	0.651	0.489	0.527	0.547	0.348	0.726	0.761	0.834	0.697	0.541	0.787	0.575	0.616	0.559
HCC-366	0.117	0.0944	0.121	0.0773	1.04	0.909	0.958	0.866	0.881	0.503	0.625	0.639	0.603	0.63	0.595	0.593	0.543	0.665
HCC-827	0.397	0.401	0.4	0.421	1.04	0.993	0.813	1.03	0.165	0.342	0.42	0.4	0.421	0.408	0.358	0.304	0.431	0.181

Cell Line	relative viability (PAC-1 + Tozasertib; first compound 0.02 µM)	relative viability (PAC-1 + Tozasertib; first compound 0.06325 µM)	relative viability (PAC-1 + Tozasertib; first compound 0.2 µM)	relative viability (PAC-1 + Tozasertib; first compound 2 µM)	relative viability (Ibrutinib + Foretinib; first compound 0.005 µM)	relative viability (Ibrutinib + Foretinib; first compound 0.01581 µM)	relative viability (Ibrutinib + Foretinib; first compound 0.05 µM)	relative viability (Ibrutinib + Foretinib; first compound 0.1581 µM)	relative viability (Ibrutinib + Foretinib; first compound 0.5 µM)	relative viability (BMX-IN-1 + Phenformin; first compound 0.02 µM)	relative viability (BMX-IN-1 + Phenformin; first compound 0.2 µM)	relative viability (BMX-IN-1 + Phenformin; first compound 0.6325 µM)	relative viability (BMX-IN-1 + Phenformin; first compound 2 µM)	relative viability (Ibrutinib + Phenformin; first compound 0.005 µM)	relative viability (Ibrutinib + Phenformin; first compound 0.01581 µM)	relative viability (Ibrutinib + Phenformin; first compound 0.05 µM)	relative viability (Ibrutinib + Phenformin; first compound 0.1581 µM)	relative viability (Ibrutinib + Phenformin; first compound 0.5 µM)
HOP-62	0.346	0.395	0.349	0.355	1.19	1.11	1.17	1.21	1.3	0.567	0.869	0.752	0.772	0.759	0.621	0.696	0.724	0.804
IA-LM	–	–	–	–	1.11	1.04	1.1	1.24	1.1	–	–	–	–	–	–	–	–	–
LC-2-ad	0.456	0.48	0.357	0.449	0.958	0.747	0.856	0.886	0.836	0.553	0.555	0.722	0.617	0.552	0.579	0.56	0.478	0.531
LCLC-97TM1	0.22	0.286	0.217	0.225	0.945	0.881	1	1	0.843	0.383	0.455	0.503	0.471	0.452	0.457	0.449	0.504	0.411
LCLC-103H	0.56	0.492	0.494	0.463	0.809	0.623	0.792	0.835	0.728	0.304	0.389	0.319	0.317	0.334	0.282	0.3	0.369	0.275
LK-2	0.174	0.186	0.199	0.175	–	–	1.32	1.27	0.996	0.487	0.505	0.473	0.548	–	0.529	0.396	0.357	0.282
LOU-NH91	0.624	0.7	0.645	0.679	0.861	0.769	0.679	0.913	0.568	0.411	–	0.882	0.704	0.59	0.642	0.557	0.711	0.45
LU99A	0.309	0.254	0.247	0.286	0.734	0.703	0.856	0.945	0.497	0.817	0.811	1.06	0.759	0.889	0.8	0.837	1.05	0.846
LXF-289	0.148	0.234	0.197	0.165	0.946	0.958	0.995	0.917	0.956	0.481	0.521	0.538	0.536	0.537	0.472	0.515	0.465	0.497
NCI-H23	0.323	0.384	0.366	0.383	0.988	0.884	0.939	0.914	0.641	0.724	0.956	0.828	0.838	0.674	0.777	0.789	0.861	0.797
NCI-H322M	0.496	0.537	0.467	0.477	0.872	0.864	0.899	0.989	0.642	0.867	0.821	0.795	0.791	0.715	0.675	0.675	0.676	0.569
NCI-H358	0.103	0.101	0.0952	0.109	0.294	–	0.35	0.551	0.291	0.355	0.342	0.384	0.324	0.23	–	0.178	0.202	0.174
NCI-H441	0.754	0.597	0.505	0.606	0.898	1.11	1.1	1.08	0.895	0.864	1.02	0.991	1	1.01	0.82	0.912	0.988	1.01
NCI-H460	0.356	0.453	0.394	0.542	1.06	0.909	–	1.01	0.992	0.917	0.576	0.677	0.609	0.636	0.46	0.463	0.572	0.592
NCI-H520	0.461	0.468	0.407	0.393	0.672	–	0.734	0.945	0.531	0.711	0.81	0.709	0.693	0.431	0.606	0.583	0.634	0.356
NCI-H522	0.598	0.582	0.62	0.469	–	–	–	–	–	0.77	0.64	0.669	0.635	0.627	0.545	0.688	0.582	0.622
NCI-H1299	–	–	–	–	0.557	1.07	1.14	1.09	1.11	–	–	–	–	–	–	–	–	–
NCI-H1563	–	–	–	–	0.985	0.92	0.935	0.998	0.88	0.664	0.644	0.648	0.642	0.695	0.668	0.652	0.65	0.657
NCI-H1648	0.6	0.606	0.464	0.488	–	–	–	–	–	–	–	–	–	–	–	–	–	–
NCI-H1703	–	–	–	–	–	0.322	0.317	0.307	0.338	–	–	–	–	–	–	–	–	–
NCI-H1792	–	–	–	–	–	–	–	–	–	0.235	0.354	0.292	0.312	–	0.449	–	0.206	0.171
